Measurements as given in patent publication US20090312288A1 (TAKEDA PHARMACEUTICAL COMPANY LIMITED, priority 2008, published 2009).

What follows are compounds tested against Aurora B/INCENP (Homo sapiens, UniProt Q96GD4) (assay: Determination of inhibition of AIK: Aurora B/INCENP direct fluorescence polarization (IMAP) assay). Conditions: 10 uM ATP, 0.8 nM Aurora B/INCENP; values given as bins; read-out: IC50 of Exemplified Compounds Against AIK B.
Assay type: biochemical
Procedure: Detection of the reaction product is performed by addition of Progressive IMAP binding reagent (Molecular Devices). Reaction product may be determined quantitatively by FP using an Analyst HT plate reader (Molecular Devices) with an excitation wavelength at 485 nm and emission at 530 nm and using a Fluorescein 505 dichroic mirror.
The assay reaction may be initiated as follows: 2 ul of (3×) 300 nM Fl-Peptide/30 uM ATP was added to each well of the plate, followed by the addition of 2 ul of (3×) inhibitor (2 fold serial dilutions for 11 data points for each inhibitor) containing 15% DMSO. Two microliters of (3×) 2.4 nM AuroraB/INCENP solution may be added to initiate the reaction (final enzyme concentration was 0.8 nM for Aurora B/INCENP). The reaction mixture may then be incubated at room temperature for 45 min, and quenched and developed by addition of 20 ul of 1 to 400 diluted Progressive IMAP binding reagent in 1× proprietary Progressive IMAP binding buffer A. Fluorescence polarization readings of the resulting reaction mixtures may be measured after a 60-minute incubation at room temperature.
IC50 values may be calculated by non-linear curve fitting of the compound concentrations and fluorescent polarization values to the standard IC50 equation.

Aurora B/INCENP, sequence (Q96GD4 whole entry): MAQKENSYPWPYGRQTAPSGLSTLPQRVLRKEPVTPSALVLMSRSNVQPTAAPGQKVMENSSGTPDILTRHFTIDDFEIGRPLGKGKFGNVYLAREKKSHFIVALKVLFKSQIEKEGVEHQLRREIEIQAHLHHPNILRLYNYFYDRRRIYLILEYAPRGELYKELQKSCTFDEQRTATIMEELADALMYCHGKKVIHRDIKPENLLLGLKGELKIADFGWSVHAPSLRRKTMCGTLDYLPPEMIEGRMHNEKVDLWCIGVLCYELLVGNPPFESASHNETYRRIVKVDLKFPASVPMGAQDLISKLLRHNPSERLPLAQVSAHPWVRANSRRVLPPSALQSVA
Aurora B/INCENP, sequence (Q9NQS7 whole entry partner): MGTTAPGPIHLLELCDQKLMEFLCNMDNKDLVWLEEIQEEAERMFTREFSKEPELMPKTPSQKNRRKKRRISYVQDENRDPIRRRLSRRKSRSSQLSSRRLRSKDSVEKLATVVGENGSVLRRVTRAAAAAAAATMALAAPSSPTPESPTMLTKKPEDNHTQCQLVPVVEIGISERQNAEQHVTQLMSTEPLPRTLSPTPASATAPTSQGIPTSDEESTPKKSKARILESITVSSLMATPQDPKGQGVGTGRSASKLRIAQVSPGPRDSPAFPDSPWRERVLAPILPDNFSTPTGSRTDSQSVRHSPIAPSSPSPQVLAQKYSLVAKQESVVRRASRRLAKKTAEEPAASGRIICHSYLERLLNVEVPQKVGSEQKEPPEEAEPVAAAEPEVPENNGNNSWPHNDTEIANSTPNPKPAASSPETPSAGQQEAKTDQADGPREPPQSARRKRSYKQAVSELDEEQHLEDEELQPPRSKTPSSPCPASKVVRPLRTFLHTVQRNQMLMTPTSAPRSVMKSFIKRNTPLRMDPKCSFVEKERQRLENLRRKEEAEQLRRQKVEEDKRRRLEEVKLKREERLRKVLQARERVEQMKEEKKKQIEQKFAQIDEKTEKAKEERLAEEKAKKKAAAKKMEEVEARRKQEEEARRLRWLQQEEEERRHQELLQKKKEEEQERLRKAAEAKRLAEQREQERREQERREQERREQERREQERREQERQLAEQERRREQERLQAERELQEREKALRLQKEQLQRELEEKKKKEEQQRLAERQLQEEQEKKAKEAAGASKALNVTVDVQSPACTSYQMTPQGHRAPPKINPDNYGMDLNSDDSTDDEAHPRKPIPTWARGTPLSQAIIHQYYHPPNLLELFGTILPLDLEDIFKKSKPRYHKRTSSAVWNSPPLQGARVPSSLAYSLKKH

| Compound | IC50 |
| --- | --- |
| Cc1cnc2[nH]c3c(OC[C@@H](CN4CCOCC4)OP(=O)(O)O)ccc(-c4cccc(S(=O)(=O)C5CC5)c4)c3c2c1 [Compound 382, (R)-1-(5-(3-(cyclopropylsulfonyl)phenyl)-3-methyl-9H-pyrido[2,3-b]indol-8-yloxy)-3-morpholinopropan-2-yl dihydrogen phosphate] | < 4 nM |
| CNS(=O)(=O)c1cccc(-c2ccc(OCC3CCN(C)CC3)c3[nH]c4ncc(C)cc4c23)c1 [Compound 180, N-methyl-3-(3-methyl-8-((1-methylpiperidin-4-yl)methoxy)-9H-pyrido[2,3-b]indole-5-yl)benzenesulfonamide] | 8.6 to 13 nM |
| Cc1cnc2[nH]c3c(OCC4CCN(CCOP(=O)(O)O)CC4)ccc(-c4cccc(S(=O)(=O)C5CC5)c4)c3c2c1 [Compound 346, 2-(4-((5-(3-(cyclopropylsulfonyl)phenyl)-3-methyl-9H-pyrido[2,3-b]indol-8-yloxy)methyl)piperidin-1-yl)ethyl dihydrogen phosphate] | < 4 nM |
| Cc1cnc2[nH]c3c(OCCCN4CCC(OP(=O)(O)O)CC4)ccc(-c4cccc(S(=O)(=O)C5CC5)c4)c3c2c1 [Compound 444, 1-(3-(5-(3-(cyclopropylsulfonyl)phenyl)-3-methyl-9H-pyrido[2,3-b]indol-8-yloxy)propyl)piperidin-4-yl dihydrogen phosphate] | < 4 nM |
| Cc1cnc2[nH]c3c(OC[C@@H]4CN(C)CCO4)ccc(-c4cccc(S(=O)(=O)C5CC5)c4)c3c2c1 [Compound 370, (S)-2-((5-(3-(cyclopropylsulfonyl)phenyl)-3-methyl-9H-pyrido[2,3-b]indol-8-yloxy)methyl)-4-methylmorpholine] | 4 to 5.5 nM |
| Cc1cc(Nc2ccc(OCC3CCN(C)CC3)c3[nH]c4ncc(Cl)cc4c23)ccc1N1CCN(C)CC1 [Compound 316, 3-chloro-N-(3-methyl-4-(4-methylpiperazin-1-yl)phenyl)-8-((1-methylpiperidin-4-yl)methoxy)-9H-pyrido[2,3-b]indol-5-amine] | > 13 nM |
| CCS(=O)(=O)c1cccc(-c2ccc(OCCN3CCN(C)CC3)c3[nH]c4ncc(Cl)cc4c23)c1 [Compound 224, 3-chloro-5-(3-(ethylsulfonyl)phenyl)-8-(2-(4-methylpiperazin-1-yl)ethoxy)-9H-pyrido[2,3-b]indole] | 5.6 to 8.5 nM |
| Cc1cnc2[nH]c3c(OCCCNCCO)ccc(-c4cccc(S(=O)(=O)C5CC5)c4)c3c2c1 [Compound 408, 2-(3-(5-(3-(cyclopropylsulfonyl)phenyl)-3-methyl-9H-pyrido[2,3-b]indol-8-yloxy)propylamino)ethanol] | < 4 nM |
| Cc1cnc2[nH]c3c(OCC4CCN(CCO)CC4)ccc(-c4cccc(S(=O)(=O)C5CC5)c4)c3c2c1 [Compound 345, 2-(4-((5-(3-(cyclopropylsulfonyl)phenyl)-3-methyl-9H-pyrido[2,3-b]indol-8-yloxy)methyl)piperidin-1-yl)ethanol] | < 4 nM |
| COc1ccc(-c2cccc(C(=O)NCCO)c2)c2c1[nH]c1ncc(C)cc12 [Compound 168, N-(2-hydroxyethyl)-3-(8-methoxy-3-methyl-9H-pyrido[2,3-b]indol-5-yl)benzamide] | 8.6 to 13 nM |
| COc1ccc(-c2cccc(C(=O)NC3CC3)c2)c2c1[nH]c1ncc(C)cc12 [Compound 164, N-cyclopropyl-3-(8-methoxy-3-methyl-9H-pyrido[2,3-b]indol-5-yl)benzamide] | 5.6 to 8.5 nM |
| COc1ccc(-c2cccc(NC(=O)C3CC3)c2)c2c1[nH]c1ncc(C)cc12 [Compound 163, N-(3-(8-methoxy-3-methyl-9H-pyrido[2,3-b]indol-5-yl)phenyl)cyclopropanecarboxamide] | 8.6 to 13 nM |
| Cc1cnc2[nH]c3c(C)c(C(=O)NC4CCN(C)CC4)cc(-c4cccc(C(=O)NC5CC5)c4)c3c2c1 [Compound 228, 5-(3-(cyclopropylcarbamoyl)phenyl)-3,8-dimethyl-N-(1-methylpiperidin-4-yl)-9H-pyrido[2,3-b]indole-7-carboxamide] | > 13 nM |
| CCS(=O)(=O)c1cccc(-c2cc(C(=O)N3CCC(CCO)CC3)c(C)c3[nH]c4ncc(C)cc4c23)c1 [Compound 454, (5-(3-(ethylsulfonyl)phenyl)-3,8-dimethyl-9H-pyrido[2,3-b]indol-7-yl)(4-(2-hydroxyethyl)piperidin-1-yl)methanone] | 8.6 to 13 nM |
| Cc1cnc2[nH]c3c(OC[C@H]4CN(C)CCO4)ccc(-c4cccc(S(=O)(=O)C5CC5)c4)c3c2c1 [Compound 371, (R)-2-((5-(3-(cyclopropylsulfonyl)phenyl)-3-methyl-9H-pyrido[2,3-b]indol-8-yloxy)methyl)-4-methylmorpholine] | < 4 nM |
| CS(=O)(=O)c1cccc(-c2cccc3[nH]c4ncccc4c23)c1 [Compound 8, 5-(3-(methylsulfonyl)phenyl)-9H-pyrido[2,3-b]indole] | > 13 nM |

The remaining lines, values ahead:

| IC50 | Compound |
| --- | --- |
| 8.6 to 13 nM | CCS(=O)(=O)c1cccc(-c2cc(C(=O)NCCN(C)C)c(C)c3[nH]c4ncc(C)cc4c23)c1 [Compound 113] |
| > 13 nM | CCS(=O)(=O)c1cccc(-c2ccc(OCCn3ccnc3)c3[nH]c4ncc(C)cc4c23)c1 [Compound 333, 8-(2-(1H-imidazol-1-yl)ethoxy)-5-(3-(ethylsulfonyl)phenyl)-3-methyl-9H-pyrido[2,3-b]indole] |
| 4 to 5.5 nM | CCS(=O)(=O)c1cccc(-c2cnc(OC[C@@H](O)CO)c3[nH]c4ncc(C)cc4c23)c1 [Compound 57] |
| 5.6 to 8.5 nM | CCS(=O)(=O)c1cccc(-c2cnc(C)c3[nH]c4ncc(C)cc4c23)c1 [Compound 47, 5-(3-Ethanesulfonyl-phenyl)-3,8-dimethyl-9H-dipyrido[2,3-b;4′,3′-d]pyrrole] |
| 5.6 to 8.5 nM | CCS(=O)(=O)c1cccc(-c2ccc(OC[C@@H](C)O)c3[nH]c4ncc(C)cc4c23)c1 [Compound 233, (R)-1-(5-(3-(ethylsulfonyl)phenyl)-3-methyl-9H-pyrido[2,3-b]indol-8-yloxy)propan-2-ol] |
| > 13 nM | CCS(=O)(=O)c1cccc(-c2cc(C(=O)NCCN3CCNCC3)c(C)c3[nH]c4ncc(C)cc4c23)c1 [Compound 94] |
| > 13 nM | CCN1CCC(NC(=O)c2cc(-c3cccc(S(=O)(=O)CC)c3)c3c([nH]c4ncc(C)cc43)c2C)CC1 [Compound 105, N-(1-ethylpiperidin-4-yl)-5-(3-(ethylsulfonyl)phenyl)-3,8-dimethyl-9H-pyrido[2,3-b]indole-7-carboxamide] |
| 5.6 to 8.5 nM | CCS(=O)(=O)c1cccc(-c2cc(C(=O)NCCN(C)C)cc3[nH]c4ncc(C)cc4c23)c1 [Compound 142, 5-(3-Ethanesulfonyl-phenyl)-3-methyl-9H-pyrido[2,3-b]indole-7-carboxylic acid (2-dimethylamino-ethyl)-amide] |
| > 13 nM | CCS(=O)(=O)c1cccc(-c2c(Br)c(C(=O)OC)cc3[nH]c4ncc(C)cc4c23)c1 [Compound 147, 6-Bromo-5-(3-ethanesulfonyl-phenyl)-3-methyl-9H-pyrido[2,3-b]indole-7-carboxylic acid methyl ester] |
| 5.6 to 8.5 nM | CCS(=O)(=O)c1cccc(-c2cc(Cl)c(OC)c3[nH]c4ncc(C)cc4c23)c1 [Compound 246, 7-chloro-5-(3-(ethylsulfonyl)phenyl)-8-methoxy-3-methyl-9H-pyrido[2,3-b]indole] |
| 8.6 to 13 nM | CCS(=O)(=O)c1cccc(-c2cnc(OC[C@@H](C)OC(=O)[C@H](C)N)c3[nH]c4ncc(C)cc4c23)c1 [Compound 65, L-Alanine-(R)-2-[5-(3-ethanesulfonyl-phenyl)-3-methyl-9H-dipyrido[2,3-b;4′,3′-d]pyrrol-8-yloxy]-1-methyl-ethyl ester] |
| 5.6 to 8.5 nM | CCS(=O)(=O)c1cccc(-c2ccc(C)c3[nH]c4ncc(C)cc4c23)c1 [Compound 18, 5-(3-(ethylsulfonyl)phenyl)-3,8-dimethyl-9H-pyrido[2,3-b]indole] |
| 8.6 to 13 nM | CCS(=O)(=O)c1cccc(-c2cc(C(=O)NCCOCC(F)(F)F)c(C)c3[nH]c4ncc(C)cc4c23)c1 [Compound 107] |
| 8.6 to 13 nM | CCN(CC)CCNC(=O)c1cc(-c2cccc(S(=O)(=O)CC)c2)c2c([nH]c3ncc(C)cc32)c1C [Compound 262, N-(2-(diethylamino)ethyl)-5-(3-(ethylsulfonyl)phenyl)-3,8-dimethyl-9H-pyrido[2,3-b]indole-7-carboxamide] |
| 8.6 to 13 nM | CCS(=O)(=O)c1cccc(-c2cc(C(=O)NCCN3CCCC3)c(C)c3[nH]c4ncc(C)cc4c23)c1 [Compound 116, 5-(3-(ethylsulfonyl)phenyl)-3,8-dimethyl-N-(2-(pyrrolidin-1-yl)ethyl)-9H-pyrido[2,3-b]indole-7-carboxamide] |
| 8.6 to 13 nM | CCS(=O)(=O)c1cccc(-c2cnc(C#N)c3[nH]c4ncc(C)cc4c23)c1 [Compound 49, 5-(3-Ethanesulfonyl-phenyl)-3-methyl-9H-dipyrido[2,3-b;4′,3′-d]pyrrole-8-carbonitrile] |
| 4 to 5.5 nM | CCS(=O)(=O)c1cccc(-c2ccc(OCCO)c3[nH]c4ncc(Cl)cc4c23)c1 [Compound 225, 2-(3-chloro-5-(3-(ethylsulfonyl)phenyl)-9H-pyrido[2,3-b]indol-8-yloxy)ethanol] |
| 8.6 to 13 nM | CCS(=O)(=O)c1cccc(-c2cc(C(=O)NCC(C)(C)O)c(C)c3[nH]c4ncc(C)cc4c23)c1 [Compound 103, 5-(3-(ethylsulfonyl)phenyl)-N-(2-hydroxy-2-methylpropyl)-3,8-dimethyl-9H-pyrido[2,3-b]indole-7-carboxamide] |
